Several values for one entry are separate records, joined by “and”; a condition that tells them apart may be missing. Identical values can stand only once.
What was measured:
Fusarium [1] = assay: Treatment of barley artificially contaminated with Fusarium with chlorine dioxide solutions (test tube, plate count); format: cell-based
Procedure: The performance of chlorine dioxide was investigated to reduce initial Fusarium load on barley. Prior to treatment with chlorine dioxide, barley samples were artificially contaminated with cells of Fusarium by spraying and drying.
Methods. Chlorine dioxide solutions were generated using Diversey's ClearKlens Bi-Spore Set (Base VH26 and Activator VH 26). Fresh stock solutions were prepared following product use instructions. Concentrations of chlorine dioxide in stock and use solutions were determined with a Dr. Lange test-kit (LCK 310/343) and photometric DR 2800 device. Chlorine dioxide use solutions were prepared diluting the Bi-Spore stock solution with aid of CEN hard water diluent (300 mg/kg CaCO3). The neutralizing solution was based on sodium thiosulfate (5 g/L in ¼ strength Ringer solution). Experiments were carried out at ambient temperature and no soil on the basis of EN 1276. Chlorine dioxide use solutions for testing were determined to be 1 ppm and 10 ppm.
Test runs were conducted as follows. In a test tube, chlorine dioxide solution (10 ml) was added to barley (1 g) and the start time of the experiment was recorded. Barley and chlorine dioxide were mixed by vortexing for 10 seconds and then allowed to react for one hour. After treating the barley with chlorine dioxide solution for one hour, the solution was decanted. Shortly thereafter, a subsequent treatment for either 60 or 300 min with a fresh solution containing either 1 ppm ClO2 or 10 ppm ClO2 was performed. After completion of the second treatment, a portion of the mixture (1 mL) was pipetted into 9 ml of neutralizer and mixed. After 5 minutes reaction time, 1 mL of the neutralized solution was added to 9 mL Ringer diluent. A dilution series was prepared up to 1:10,000. From each dilution step, 1 mL (in duplicate) was plated on potato dextrose agar. Plates were incubated at 30° C. for 62 hours. Grown colonies on plates were counted and expressed at CFU per gram barley. A control experiment using Ringer solution instead of chlorine dioxide was performed following the same procedure.

Fusarium [2] = assay: Fusarium counts on barley, chlorine dioxide in second steeping, pilot steeping chamber (Example 2); format: cell-based
Procedure: (§1) Test protocol. Harvested barley from a high load Fusarium batch was provided by Czech Malt and Brew Institute. A starting probe (parallel) was taken to determine initial cell load on barley with Fusarium. Barley (1 g) was whirled in Ringer-solution (10 ml) to detach cells. After thorough whirling ten-fold dilutions steps in sterile Ringer-solution were prepared. 1 ml sample in parallel from dilution steps 10^−4, 10^−5 and 10^−6 were poured with sterile potato agar medium. Chlorine dioxide treated barley was prior to dilution series once washed with Ringer-solution to remove residual Chlorine dioxide. Plates were transferred into a temperature-controlled (30° C.) incubation box and grown for 3-5 days until colony formation was observed. Colonies were counted and calculated to CFU/g. Boxes with barley were placed into a steeping/germination box. The chamber was filled with town tap water for the first steeping and to remove dust and dirt. With help of Dulcotest DT1 photometer (Prominent), the free chlorine in tap water was determined to be 0.17 ppm. The first steeping was performed for 5 hours at about 14.5° C. During this time the water content in exposed barley increased up to 31.8%. After the first steeping residual water was drained. A second (parallel) barley sample was taken to determine the Fusarium load. The steeped barley was then exposed to air until next morning (approximately 16 hours), and a third (parallel) barley sample was taken to determine Fusarium load.
(§2) The second steeping was performed using an aqueous solution of chlorine dioxide. The aqueous solution was made of Diversey Bi-Spore as described in Example 1. The chlorine dioxide steeping solution was prepared from stock by diluting with town tap water. The chlorine dioxide concentration of the steeping solution was determined to be 12 ppm.
(§3) Four boxes with 0.5 kg barley each were placed into a plastic container, which then was filled with 11 L of above mentioned chlorine dioxide steeping solution. The plastic container was transferred into the steeping/germination chamber and left for another 4 hour steeping period. The chlorine dioxide concentration was periodically monitored using Dr. Lange test-kits (LCK 310/343) and DR 2800 device. (Parallel) Barley samples were taken to determine residual cell load of Fusarium after the chlorine dioxide steeping.
After second steeping with chlorine dioxide, the boxes were exposed to air in the closed chamber for another 20 hour period. The water level was determined to 38.1% and then adjusted to final 45.5% after a third steeping with tap water for a period of 2.5 hours. A final parallel barley sample was taken to determine residual cell load with Fusarium prior to germination. Treated barley then was further processed according to a quality parameter protocol of the Malting Institute.

[3] = Chlorine dioxide concentration in the steeping solution during steeping; format: physicochemical; conditions: for ClO2 concentration in the steeping solution: Example 2, second steeping
Procedure: as §2, §3
(§4) A comparison test with a batch of barley treated with chlorine dioxide in second steeping versus a control using tap water only was carried out following the procedure described in Example 2. The chlorine dioxide in the second steeping solution was determined as initial 11 ppm and dropped to 8 ppm at the end of steeping (4 hour in total, data not shown). The effect on reduction of Fusarium counts were determined.

Fusarium [4] = assay: Fusarium counts on barley, chlorine dioxide in second steeping versus tap water blank (Example 3); format: cell-based
Procedure: as §1, §4

[5] = system: Fusarium mycotoxins (deoxynivalenol, zearalenon) and deoxynivalenol-3-glucoside; assay: Mycotoxin content of barley by LC-MS/MS
Procedure: The barley was also analyzed for representative mycotoxin content as follows. The high-performance liquid chromatography with mass detection (LC-MS/MS) was used for the determination of the selected Fusarium mycotoxins (deoxynivalenol, zearalenon) and deoxynivalenol-3-glucoside in brewing raw materials. After extraction, the homogenized samples were filtered and purified on the SPE column or immunoaffinity column. Subsequently, they were concentrated using a vacuum evaporator, transferred to aqueous methanol and analyzed with the LC-MS/MS.

Fusarium [6] = assay: Industrial-scale treatment of barley with chlorine dioxide (about 10 ppm) in second steeping, Fusarium counts; format: cell-based; conditions: in words
Procedure: Two independent comparison tests with batches of barley treated with chlorine dioxide in a second steeping, versus control steepings using tap water only, were carried out at industrial scale at an industrial malting site following the procedure described in Example 2. Each batch included about 56 m^3 of barley, the ratio of aqueous chlorine dioxide to barley was about 1:1, and chlorine dioxide (about 10 ppm) was added during second steeping. There was no further dosage of ClO2 during the subsequent germination phase. The effect on reduction of Fusarium counts at industrial-scale were determined at distinct phases: after a first air break, after the second steeping, and during the green malt stage (after barley germination).

Fusarium [7] = assay: Industrial-scale spraying of barley with aqueous chlorine dioxide (20 ppm) during germination, Fusarium counts; format: cell-based; conditions: for Log N Fusarium counts: sprayed with aqueous ClO2 (20 ppm) during germination, samples 11B, 12B
Procedure: Comparison tests were conducted with two batches of barley at the same industrial malting site of Example 5, to determine the effect of ClO2 upon Fusarium counts where the barley is sprayed with aqueous ClO2 (20 ppm) during germination. Both batches were treated with tap water during the steeping stage. Batches 11A and 12A were also sprayed with tap water during germination, whereas batches 11B and 12B were sprayed with aqueous ClO2 (20 ppm) during germination. Each batch of barley weighed approximately 56 metric tons when dry and absorbed approximately 40-50% water by weight during the steeping and germination steps. For example, the barley typically absorbed about 41-42% water during steeping. During germination water content in the barley further increased to about 45-46%. During germination, the steeped batch of barley was sprayed with about 8.8 m^3 aqueous chlorine dioxide (20 ppm) solution (i.e., about 0.15 m^3 aqueous chlorine dioxide solution per metric ton of dry grain).

Fusarium [8] = assay: Fusarium counts on barley, chlorine dioxide in second steeping, pilot steeping chamber (Example 2); format: cell-based; remark: listed apart in the source
[9] = 10 ppm + 1 ppm ClO2, contact time 60 min + 60 min
[10] = 10 ppm + 1 ppm ClO2, contact time 60 min + 300 min
[11] = 10 ppm + 10 ppm (2nd steep) ClO2, contact time 60 min + 60 min
[12] = 10 ppm + 10 ppm (2nd steep) ClO2, contact time 60 min + 300 min
[13] = ClO2-treated batch, after third steeping with tap water
[14] = ClO2-treated batch, after third steeping with tap water, second sample
[15] = after second steeping with ClO2 (4 hours), 12 ppm
[16] = after second steeping with ClO2 (4 hours), 12 ppm, second sample
[17] = second steeping step with chlorine dioxide
[18] = after 2nd steeping with ClO2 (4 hours)
[19] = Bojos barley after steeping with chlorine dioxide

## [O][Cl+][O-] [ClO2, chlorine dioxide]
Fusarium [1]; [9]
  CFU/g after treatment: 3.3 × 10^6 CFU/g
  R (log batch control − log batch ClO2), reduction in viability: 1.06
Fusarium [1]; [10]
  CFU/g after treatment: 1.3 × 10^7 CFU/g
  R (log batch control − log batch ClO2), reduction in viability: 0.47
Fusarium [1]; [11]
  CFU/g after treatment: 1.1 × 10^4 CFU/g
  R (log batch control − log batch ClO2), reduction in viability: 3.58
Fusarium [1]; [12]
  CFU/g after treatment: 5 × 10^3 CFU/g
  R (log batch control − log batch ClO2), reduction in viability: 3.88
Fusarium [1]; Example 1, in words
  Fusarium counts on barley compared to a control without chlorine dioxide: clear reduction
Fusarium [2]; [13]
  Fusarium counts, Mean value (CFU/g): 2.47 × 10^5 CFU/g
  Fusarium counts, Sample 1 (CFU/g): 2.47 × 10^5 CFU/g
Fusarium [2]; [14]
  Fusarium counts, Sample 1 (CFU/g): 2.47 × 10^5 CFU/g
Fusarium [2]; [15]
  Fusarium counts, Mean value (CFU/g): 5.16 × 10^4 CFU/g
  Fusarium counts, Sample 1 (CFU/g): 5.23 × 10^4 CFU/g
Fusarium [2]; [16]
  Fusarium counts, Sample 1 (CFU/g): 5.09 × 10^4 CFU/g
Fusarium [2]; malted barley, data not shown
  Fusarium in malted barley produced from the treated batch: free from Fusarium
Fusarium [2]; [17]
  Reduction of Fusarium numbers on barley (%): 94.15%
  Reduction of Fusarium numbers on barley (log): 1.24 log
[3]; time 0 min
  ClO2 concentration in the steeping solution: 12.2 mg/L
[3]; time 80 min
  ClO2 concentration in the steeping solution: 11.8 mg/L
[3]; time 140 min
  ClO2 concentration in the steeping solution: 7.4 mg/L
[3]; time 190 min
  ClO2 concentration in the steeping solution: 9.5 mg/L
[3]; time 240 min
  ClO2 concentration in the steeping solution: 6.4 mg/L
[3]; Example 3, end of steeping (4 hour in total)
  Chlorine dioxide in the second steeping solution, end of steeping: 8 ppm
[3]; Example 3, start of steeping
  Chlorine dioxide in the second steeping solution, initial: 11 ppm
Fusarium [4]; after 2nd aeration (20 hours)
  % reduction vs. untreated control: 93.09%
  Fusarium counts, treated with ClO2, mean value (CFU/g): 4.41 × 10^3 CFU/g
  Fusarium counts, treated with ClO2, sample 1 (CFU/g): 4.69 × 10^3 CFU/g
  Fusarium counts, treated with ClO2, sample 2 (CFU/g): 4.13 × 10^3 CFU/g
  log reduction vs. untreated control: 1.17
Fusarium [4]; [18]
  % reduction vs. untreated control: 93.44%
  Fusarium counts, treated with ClO2, mean value (CFU/g): 4.56 × 10^3 CFU/g
  Fusarium counts, treated with ClO2, sample 1 (CFU/g): 4.37 × 10^3 CFU/g
  Fusarium counts, treated with ClO2, sample 2 (CFU/g): 4.75 × 10^3 CFU/g
  log reduction vs. untreated control: 1.18
Fusarium [4]; after 3rd steeping
  % reduction vs. untreated control: 92.59%
  Fusarium counts, treated with ClO2, mean value (CFU/g): 3.14 × 10^3 CFU/g
  Fusarium counts, treated with ClO2, sample 1 (CFU/g): 3.12 × 10^3 CFU/g
  Fusarium counts, treated with ClO2, sample 2 (CFU/g): 3.15 × 10^3 CFU/g
  log reduction vs. untreated control: 1.13
Fusarium [4]; chlorine dioxide in second steeping, in words
  Fusarium counts compared to the control steeped with tap water only: significantly lower
[5]; [19]
  DON concentration on barley: 450.4 µg/kg
  DON_3_Glc concentration on barley: 751 µg/kg
  ZON concentration on barley: 12.1 µg/kg
[5]; Bojos barley steeped with chlorine dioxide, Table 7
  DON: 450.4 µg/kg
[5]; in words
  Mycotoxin concentration of DON and DON_3_Glc on barley compared to initial load of untreated barley or barley steeped with water only: significantly lower
  ZON level compared to tap water only: significantly less
[5]; in words, independently of whether water or chlorine dioxide was used
  Level of ZON after steeping compared to initial load: increased
Fusarium [6]
  Fusarium counts compared to control batches steeped with tap water: significantly lower
Fusarium [7]; industrial scale, sprayed during germination, in words
  Fusarium counts on barley compared to control batch sprayed with tap water: significantly lower
Fusarium [7]; Day 1
  Log N Fusarium counts: 5.9 and 5.8
Fusarium [7]; Day 2
  Log N Fusarium counts: 5.2
Fusarium [7]; Day 3
  Log N Fusarium counts: 5.2
Fusarium [7]; Day 4
  Log N Fusarium counts: 4.3
Fusarium [7]; Day 5
  Log N Fusarium counts: 4.1 and 4.0
Fusarium [8]; [13]
  Fusarium counts, Mean value (CFU/grain): 1.98 × 10^4 CFU/grain
  Fusarium counts, Sample 1 (CFU/grain): 1.90 × 10^4 CFU/grain
Fusarium [8]; [14]
  Fusarium counts, Sample 1 (CFU/grain): 2.06 × 10^4 CFU/grain
Fusarium [8]; [15]
  Fusarium counts, Mean value (CFU/grain): 3.69 × 10^3 CFU/grain
  Fusarium counts, Sample 1 (CFU/grain): 3.74 × 10^3 CFU/grain
Fusarium [8]; [16]
  Fusarium counts, Sample 1 (CFU/grain): 3.64 × 10^3 CFU/grain
